# Test results reported in ChEMBL document CHEMBL4339220, “Scaffold Morphing Approach To Expand the Toolbox of Broad-Spectrum Antivirals Blocking Dengue/Zika Replication” (ACS Med Chem Lett, 2019).
# Test system: dengue virus type 2
# Experiment: Antiviral activity against Dengue virus type 2 NGC infected in African green monkey Vero B cells assessed as reduction in virus yield
# Type: functional, organism-based, Thailand/NGS-C/1944
# Conditions: not given; call rule not given here
row,SMILES,EC50
1,NS(=O)(=O)c1ccc(Nc2nc(N3CCOCC3)nc3[nH]cnc23)cc1,Not Active

# Same assay, conditions: Dengue virus, Thailand/NGS-C/1944, Vero B; read-out: EC50
row,SMILES,EC50 [µM]
1,OCCNc1nc(Nc2cccc(O)c2)c2nc[nH]c2n1,7.4
2,O=C1OCc2c(Nc3cccc(O)c3)nc(N3CCOCC3)nc21,> 128
3,Oc1cccc(Nc2nc(N3CCOCC3)nc3[nH]cnc23)c1,40.6
4,O=C1c2nc(N3CCOCC3)nc(Nc3cccc(O)c3)c2CN1CCc1ccccc1,70.7
5,Oc1cccc(Nc2nc(NCCOc3ccccc3)nc3[nH]cnc23)c1,10
6,O=C(NCCOc1ccccc1)c1nc(N2CCOCC2)nc(Nc2cccc(O)c2)c1CO,62.1
7,O=C1c2nc(N3CCOCC3)nc(Nc3cccc(O)c3)c2CN1CCOc1ccccc1,20.6
8,COc1ccc(CN2Cc3c(Nc4cccc(O)c4)nc(N4CCOCC4)nc3C2=O)cc1,> 112
9,CCCCCOCc1c(Nc2ccc(S(N)(=O)=O)cc2)nc(N2CCOCC2)nc1C(=O)NCCOc1ccccc1,1.82
10,CCCCCOCc1c(Nc2cccc(O)c2)nc(N2CCOCC2)nc1C(=O)NCc1ccc(C(F)(F)F)cc1,10.9
11,O=C(NCCc1ccccc1)c1nc(N2CCOCC2)nc(Nc2cccc(O)c2)c1CO,20.7
12,NS(=O)(=O)c1ccc(Nc2nc(N3CCOCC3)nc(C(=O)NCc3ccccc3)c2CO)cc1,> 100
13,COc1ccc(CNC(=O)c2nc(N3CCOCC3)nc(Nc3cccc(O)c3)c2CO)cc1,> 107
14,CCCCCOCc1c(Nc2ccc(S(N)(=O)=O)cc2)nc(N2CCOCC2)nc1C(=O)NCc1ccccc1,1
15,O=C(NCc1ccccc1)c1nc(N2CCOCC2)nc(Nc2cccc(O)c2)c1CO,> 115
16,CCCCCOCc1c(Nc2ccc(S(N)(=O)=O)cc2)nc(N2CCOCC2)nc1C(=O)NCc1ccc(OC)cc1,> 83.5
17,COc1ccc(CN2Cc3c(Nc4ccc(S(N)(=O)=O)cc4)nc(N4CCOCC4)nc3C2=O)cc1,> 97.9
18,CCCCCOCc1c(Nc2cccc(O)c2)nc(N2CCOCC2)nc1C(=O)NCc1ccccc1,20.7
19,NS(=O)(=O)c1ccc(Nc2nc(N3CCOCC3)nc3c2CN(CCOc2ccccc2)C3=O)cc1,12.2
20,O=C1c2nc(N3CCOCC3)nc(Nc3cccc(O)c3)c2CN1Cc1ccccc1,100
21,NS(=O)(=O)c1ccc(Nc2nc(N3CCOCC3)nc3c2CN(Cc2ccccc2)C3=O)cc1,21.6
22,NS(=O)(=O)c1ccc(Nc2nc(N3CCOCC3)nc3c2COC3=O)cc1,> 128
23,NC(=O)c1ncn([C@@H]2O[C@H](CO)[C@@H](O)[C@H]2O)n1 [RIBAVIRIN],11.9

# Test system: Zika virus
# Experiment: Antiviral activity against Zika virus MR766 infected in African green monkey Vero E6 cells assessed as reduction in virus yield
# Type: functional, organism-based
# Conditions: MR766, Vero C1008
row,SMILES,EC50 [µM]
1,Oc1cccc(Nc2nc(NCCOc3ccccc3)nc3[nH]cnc23)c1,16.7
2,CCCCCOCc1c(Nc2ccc(S(N)(=O)=O)cc2)nc(N2CCOCC2)nc1C(=O)NCCOc1ccccc1,2.04
3,CCCCCOCc1c(Nc2cccc(O)c2)nc(N2CCOCC2)nc1C(=O)NCc1ccc(C(F)(F)F)cc1,13.9
4,CCCCCOCc1c(Nc2ccc(S(N)(=O)=O)cc2)nc(N2CCOCC2)nc1C(=O)NCc1ccccc1,> 87.9
5,CCCCCOCc1c(Nc2cccc(O)c2)nc(N2CCOCC2)nc1C(=O)NCc1ccccc1,57.8
6,NS(=O)(=O)c1ccc(Nc2nc(N3CCOCC3)nc3c2CN(CCOc2ccccc2)C3=O)cc1,> 97.9
7,NS(=O)(=O)c1ccc(Nc2nc(N3CCOCC3)nc3c2CN(Cc2ccccc2)C3=O)cc1,> 104
8,C[C@@]1(O)[C@H](O)[C@@H](CO)O[C@H]1n1ccc2c(N)ncnc21 [BETA-2'-C-METHYL-7-DEAZA-ADENOSINE],5.7

# Test system: not listed separately
# Experiment: Cytotoxicity in African green monkey Vero E6 cells assessed as reduction in cell viability by MTS assay
# Type: cell-based
# Conditions: chlorocebus sabaeus, Vero E6 cells (Vero C1008)
row,SMILES,CC50 [µM]
1,Oc1cccc(Nc2nc(NCCOc3ccccc3)nc3[nH]cnc23)c1,> 124
2,CCCCCOCc1c(Nc2ccc(S(N)(=O)=O)cc2)nc(N2CCOCC2)nc1C(=O)NCCOc1ccccc1,> 83.5
3,CCCCCOCc1c(Nc2cccc(O)c2)nc(N2CCOCC2)nc1C(=O)NCc1ccc(C(F)(F)F)cc1,48.2
4,CCCCCOCc1c(Nc2ccc(S(N)(=O)=O)cc2)nc(N2CCOCC2)nc1C(=O)NCc1ccccc1,> 87.9
5,CCCCCOCc1c(Nc2cccc(O)c2)nc(N2CCOCC2)nc1C(=O)NCc1ccccc1,> 98.9
6,NS(=O)(=O)c1ccc(Nc2nc(N3CCOCC3)nc3c2CN(CCOc2ccccc2)C3=O)cc1,> 97.9
7,NS(=O)(=O)c1ccc(Nc2nc(N3CCOCC3)nc3c2CN(Cc2ccccc2)C3=O)cc1,> 104
8,C[C@@]1(O)[C@H](O)[C@@H](CO)O[C@H]1n1ccc2c(N)ncnc21 [BETA-2'-C-METHYL-7-DEAZA-ADENOSINE],> 357

# Test system: Dengue virus
# Experiment: Antiviral activity against Dengue virus
# Type: functional, organism-based
# Conditions: not given
row,SMILES,EC50 [µM]
1,Oc1cccc(Nc2nc(N3CCOCC3)nc3[nH]cnc23)c1,40.6
2,Oc1cccc(Nc2nc(NCCOc3ccccc3)nc3[nH]cnc23)c1,10
3,NC(=O)c1ncn([C@@H]2O[C@H](CO)[C@@H](O)[C@H]2O)n1 [RIBAVIRIN],11.9

# Test system: not listed separately
# Experiment: Selectivity index, ratio of CC50 for African green monkey Vero E6 cells to EC50 for Zika virus MR766 infected in African green monkey Vero E6 cells
# Type: toxicity, Vero C1008
# Conditions: read-out: Ratio CC50/EC50
row,SMILES,selectivity ratio
1,Oc1cccc(Nc2nc(NCCOc3ccccc3)nc3[nH]cnc23)c1,> 7.4
2,CCCCCOCc1c(Nc2ccc(S(N)(=O)=O)cc2)nc(N2CCOCC2)nc1C(=O)NCCOc1ccccc1,> 41
3,CCCCCOCc1c(Nc2cccc(O)c2)nc(N2CCOCC2)nc1C(=O)NCc1ccc(C(F)(F)F)cc1,3.5
4,CCCCCOCc1c(Nc2cccc(O)c2)nc(N2CCOCC2)nc1C(=O)NCc1ccccc1,> 1.7
5,C[C@@]1(O)[C@H](O)[C@@H](CO)O[C@H]1n1ccc2c(N)ncnc21 [BETA-2'-C-METHYL-7-DEAZA-ADENOSINE],> 64

# Test system: Zika virus
# Experiment: Antiviral activity against Zika virus
# Type: functional, organism-based
# Conditions: not given
row,SMILES,EC50 [µM]
1,Oc1cccc(Nc2nc(NCCOc3ccccc3)nc3[nH]cnc23)c1,16.7
2,C[C@@]1(O)[C@H](O)[C@@H](CO)O[C@H]1n1ccc2c(N)ncnc21 [BETA-2'-C-METHYL-7-DEAZA-ADENOSINE],9.6
3,NC(=O)c1ncn([C@@H]2O[C@H](CO)[C@@H](O)[C@H]2O)n1 [RIBAVIRIN],12

# Test system: dengue virus type 2
# Experiment: Potency index, ratio of EC50 for RBV to EC50 for test compound for antiviral activity against Dengue virus type 2 NGC infected in African green monkey Vero B cells assessed as reduction in virus yield
# Type: functional, Thailand/NGS-C/1944
# Conditions: not given
row,SMILES,Ratio EC50
1,CCCCCOCc1c(Nc2ccc(S(N)(=O)=O)cc2)nc(N2CCOCC2)nc1C(=O)NCCOc1ccccc1,6

# Test system: Zika virus
# Experiment: Potency index, ratio of EC50 for 7DMA to EC50 for test compound for antiviral activity against Zika virus MR766 infected in African green monkey Vero E6 cells assessed as reduction in virus yield
# Type: functional, Vero C1008
# Conditions: not given
row,SMILES,Ratio EC50
1,CCCCCOCc1c(Nc2ccc(S(N)(=O)=O)cc2)nc(N2CCOCC2)nc1C(=O)NCCOc1ccccc1,3

# Test system: not listed separately
# Experiment: Cytotoxicity in African green monkey Vero B cells assessed as reduction in cell viability by MTS assay
# Type: cell-based
# Conditions: chlorocebus aethiops
row,SMILES,CC50 [µM]
1,NS(=O)(=O)c1ccc(Nc2nc(N3CCOCC3)nc3[nH]cnc23)cc1,373
2,OCCNc1nc(Nc2cccc(O)c2)c2nc[nH]c2n1,> 175
3,O=C1OCc2c(Nc3cccc(O)c3)nc(N3CCOCC3)nc21,> 128
4,Oc1cccc(Nc2nc(N3CCOCC3)nc3[nH]cnc23)c1,122
5,O=C1c2nc(N3CCOCC3)nc(Nc3cccc(O)c3)c2CN1CCc1ccccc1,> 116
6,Oc1cccc(Nc2nc(NCCOc3ccccc3)nc3[nH]cnc23)c1,69.4
7,O=C(NCCOc1ccccc1)c1nc(N2CCOCC2)nc(Nc2cccc(O)c2)c1CO,73.3
8,O=C1c2nc(N3CCOCC3)nc(Nc3cccc(O)c3)c2CN1CCOc1ccccc1,> 100
9,COc1ccc(CN2Cc3c(Nc4cccc(O)c4)nc(N4CCOCC4)nc3C2=O)cc1,> 112
10,CCCCCOCc1c(Nc2ccc(S(N)(=O)=O)cc2)nc(N2CCOCC2)nc1C(=O)NCCOc1ccccc1,> 83.5
11,CCCCCOCc1c(Nc2cccc(O)c2)nc(N2CCOCC2)nc1C(=O)NCc1ccc(C(F)(F)F)cc1,32.8
12,O=C(NCCc1ccccc1)c1nc(N2CCOCC2)nc(Nc2cccc(O)c2)c1CO,64.5
13,NS(=O)(=O)c1ccc(Nc2nc(N3CCOCC3)nc(C(=O)NCc3ccccc3)c2CO)cc1,> 100
14,COc1ccc(CNC(=O)c2nc(N3CCOCC3)nc(Nc3cccc(O)c3)c2CO)cc1,> 107
15,CCCCCOCc1c(Nc2ccc(S(N)(=O)=O)cc2)nc(N2CCOCC2)nc1C(=O)NCc1ccccc1,> 87.9
16,O=C(NCc1ccccc1)c1nc(N2CCOCC2)nc(Nc2cccc(O)c2)c1CO,> 115
17,CCCCCOCc1c(Nc2ccc(S(N)(=O)=O)cc2)nc(N2CCOCC2)nc1C(=O)NCc1ccc(OC)cc1,> 83.5
18,COc1ccc(CN2Cc3c(Nc4ccc(S(N)(=O)=O)cc4)nc(N4CCOCC4)nc3C2=O)cc1,> 97.9
19,CCCCCOCc1c(Nc2cccc(O)c2)nc(N2CCOCC2)nc1C(=O)NCc1ccccc1,39.4
20,NS(=O)(=O)c1ccc(Nc2nc(N3CCOCC3)nc3c2CN(CCOc2ccccc2)C3=O)cc1,> 97.9
21,O=C1c2nc(N3CCOCC3)nc(Nc3cccc(O)c3)c2CN1Cc1ccccc1,> 120
22,NS(=O)(=O)c1ccc(Nc2nc(N3CCOCC3)nc3c2CN(Cc2ccccc2)C3=O)cc1,> 104
23,NS(=O)(=O)c1ccc(Nc2nc(N3CCOCC3)nc3c2COC3=O)cc1,> 128
24,NC(=O)c1ncn([C@@H]2O[C@H](CO)[C@@H](O)[C@H]2O)n1 [RIBAVIRIN],> 409

# Test system: not listed separately
# Experiment: Selectivity index, ratio of CC50 for African green monkey Vero B cells to EC50 for Dengue virus type 2 NGC infected in African green monkey Vero B cells
# Type: toxicity
# Conditions: read-out: Ratio CC50/EC50
row,SMILES,selectivity ratio
1,OCCNc1nc(Nc2cccc(O)c2)c2nc[nH]c2n1,> 24
2,Oc1cccc(Nc2nc(N3CCOCC3)nc3[nH]cnc23)c1,3
3,Oc1cccc(Nc2nc(NCCOc3ccccc3)nc3[nH]cnc23)c1,6.9
4,O=C(NCCOc1ccccc1)c1nc(N2CCOCC2)nc(Nc2cccc(O)c2)c1CO,1.2
5,O=C1c2nc(N3CCOCC3)nc(Nc3cccc(O)c3)c2CN1CCOc1ccccc1,> 4.9
6,CCCCCOCc1c(Nc2ccc(S(N)(=O)=O)cc2)nc(N2CCOCC2)nc1C(=O)NCCOc1ccccc1,> 46
7,CCCCCOCc1c(Nc2cccc(O)c2)nc(N2CCOCC2)nc1C(=O)NCc1ccc(C(F)(F)F)cc1,3
8,O=C(NCCc1ccccc1)c1nc(N2CCOCC2)nc(Nc2cccc(O)c2)c1CO,3.1
9,CCCCCOCc1c(Nc2ccc(S(N)(=O)=O)cc2)nc(N2CCOCC2)nc1C(=O)NCc1ccccc1,> 88
10,CCCCCOCc1c(Nc2cccc(O)c2)nc(N2CCOCC2)nc1C(=O)NCc1ccccc1,1.9
11,NS(=O)(=O)c1ccc(Nc2nc(N3CCOCC3)nc3c2CN(CCOc2ccccc2)C3=O)cc1,> 8
12,NS(=O)(=O)c1ccc(Nc2nc(N3CCOCC3)nc3c2CN(Cc2ccccc2)C3=O)cc1,> 4.8
13,NC(=O)c1ncn([C@@H]2O[C@H](CO)[C@@H](O)[C@H]2O)n1 [RIBAVIRIN],> 34
